From patent US12291529B2, “Heterocyclic GLP-1 agonists” (Gasherbrum Bio, Inc., priority 2023, dated 2025)

Target: GLP-1 Receptor (Homo sapiens, UniProt P43220)
Assay: GLP-1R agonist cAMP stimulation assay (HEK293/GLP1R/CRE-LUC cells, Cisbio cAMP dynamic 2 kit)
Type: cell-based
Conditions: Table 3, HEK293/GLP1R/CRE-LUC cells, 30 min
Protocol: Activation of GLP-1 receptor is known to stimulate cyclic AMP (cAMP) production in cells which indicates primary coupling to the G as subunit of the G protein heterotrimeric complex.
To optimize functional activity directed toward G as coupling, a HEK293/CRE-Luc cell line developed by HDB stably expressing the GLP-1 Receptor was used. 200× concentration of compound working solutions were prepared (Agilent Technologies Bravo) with ½ log serial dilution in 384-well Echo LDV plate (Labcyte, CatOLP-0200). 50 nL/well 200× concentration of compound working solutions were moved to 384-well white low volume plate (Greiner, Cat4784075) using Labcyte ECH0550.1×10^5 cells/mL HEK293/GLP1R/CRE-LUC (HD Biosciences) cell suspensions prepared with assay buffer (DPBS containing 0.5 mM IBMX (Sigma, Cat15879) and 0.10 BSA (GENVIEW, Cat4FA016-100g)), 10 uL cell suspensions were added to each well of previous generated assay plate which already contains 50 n^1 compound at 200 xconcentration using ThermioFisher Multidrop Combi (1000 cells/well). Seal the plate and incubate at 37 with […] for 30 m.
After incubation the cAMP assay signal was generated using cAMP dynamic 2 Kit (Cisbio). 5 μL cAMP-d2 working solution was added to each well, followed with 5 L Anti-cAMP antibody-cryptate working solution added to each well using ThermoFisher Multidrop Combi. Incubate at room temperature for 1 hour protected from light. Read the fluorescence at 665 and 615 nm with Reader PerkinElmer EnVision. % oActivity=100%×(mean RLU of test sample−mean RLU of vehicle control)/(mean RLU of MAX control−mean RLU of vehicle control)

Chain of GLP-1 Receptor (P43220 24-463, species assumed): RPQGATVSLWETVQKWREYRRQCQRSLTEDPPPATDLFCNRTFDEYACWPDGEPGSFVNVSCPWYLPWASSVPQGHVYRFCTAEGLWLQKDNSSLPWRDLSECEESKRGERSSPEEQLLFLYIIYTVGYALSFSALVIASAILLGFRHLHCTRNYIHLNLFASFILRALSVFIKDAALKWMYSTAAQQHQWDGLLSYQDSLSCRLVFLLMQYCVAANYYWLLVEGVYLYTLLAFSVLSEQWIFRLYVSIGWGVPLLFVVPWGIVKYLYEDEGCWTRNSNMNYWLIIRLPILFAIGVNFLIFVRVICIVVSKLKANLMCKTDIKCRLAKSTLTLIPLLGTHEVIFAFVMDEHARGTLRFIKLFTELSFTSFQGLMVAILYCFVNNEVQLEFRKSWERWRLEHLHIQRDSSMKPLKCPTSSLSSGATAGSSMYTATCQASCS

SMILES	EC50 [pM]
Cc1cc(-n2nc3c(c2-n2ccn(-c4ccc(S5(=O)=NCCC5)cc4)c2=O)[C@H](C)N(C(=O)c2cc4cc(C5CCOCC5)ccc4n2C2(c4nsc(=O)[nH]4)CC2)CC3)cc(C)c1F (single isomer, unassigned) [Compound 130]	230
Cc1cc(-n2nc3c(c2-n2ccn(-c4ccc(S5(=O)=NCCC5)cc4)c2=O)[C@H](C)N(C(=O)c2cc4cc(C5CCOCC5)ccc4n2C2(c4nsc(=O)[nH]4)CC2)CC3)cc(C)c1F (single isomer, unassigned) [Compound 131]	50
CCS(=N)(=O)c1ccc(-n2ccn(-c3c4c(nn3-c3cc(C)c(F)c(C)c3)CCN(C(=O)c3sc5cc(C6CCOCC6)ccc5c3C3(c5noc(=O)[nH]5)CC3)[C@H]4C)c2=O)cc1 (single isomer, unassigned) [Compound 132]	980
CCS(=N)(=O)c1ccc(-n2ccn(-c3c4c(nn3-c3cc(C)c(F)c(C)c3)CCN(C(=O)c3cc5cc(C6CCOCC6)ccc5n3[C@@]3(c5noc(=O)[nH]5)C[C@@H]3C)[C@H]4C)c2=O)c(Cl)c1 (single isomer, unassigned) [Compound 136]	47
Cc1nnc(C2(n3c(C(=O)N4CCc5nn(-c6cc(C)c(F)c(C)c6)c(-n6ccn(-c7ccc(S8(=O)=NCCC8)cc7)c6=O)c5[C@@H]4C)cc4cc(C5CCOCC5)ccc43)CC2)o1 (single isomer, unassigned) [Compound 155]	990
Cc1nnc(C2(n3c(C(=O)N4CCc5nn(-c6cc(C)c(F)c(C)c6)c(-n6ccn(-c7ccc(S8(=O)=NCCC8)cc7)c6=O)c5[C@@H]4C)cc4cc(C5CCOCC5)ccc43)CC2)o1 (single isomer, unassigned) [Compound 156]	1500
Cc1nnc(Cn2c(C(=O)N3CCc4nn(-c5cc(C)c(F)c(C)c5)c(-n5ccn(-c6ccc(S7(=O)=NCCC7)cc6)c5=O)c4[C@@H]3C)cc3cc(C4CCOCC4)ncc32)o1 (single isomer, unassigned) [Compound 159]	5900
CCS(=O)(=NC)c1ccc(-n2ccn(-c3c4c(nn3-c3cc(C)c(F)c(C)c3)CCN(C(=O)c3cc5cc(C6CCOCC6)ccc5n3C[C@@H]3CCO3)[C@H]4C)c2=O)cc1 (single isomer, unassigned) [Compound 162]	3200
CCS(=O)(=NC)c1ccc(-n2ccn(-c3c4c(nn3-c3cc(C)c(F)c(C)c3)CCN(C(=O)c3cc5cc(C6CCOCC6)ccc5n3C[C@H]3CCO3)[C@H]4C)c2=O)cc1 (single isomer, unassigned) [Compound 165]	9900
CCS(=N)(=O)c1ccc(-n2ccn(-c3c4c(nn3-c3ccc(F)c(C5CC5)c3)CCN(C(=O)c3cc5cc(C6CCOCC6)ccc5n3[C@@]3(c5noc(=O)[nH]5)C[C@@H]3C)[C@H]4C)c2=O)c(F)c1 (single isomer, unassigned) [Compound 166]	19
CCS(=N)(=O)c1ccc(-n2ccn(-c3c4c(nn3-c3ccc(F)c(C5CC5)c3)CCN(C(=O)c3cc5cc(C6CCOCC6)ccc5n3[C@@]3(c5noc(=O)[nH]5)C[C@@H]3C)[C@H]4C)c2=O)c(F)c1 (single isomer, unassigned) [Compound 167]	120

Continued, values first:

EC50 [pM]	SMILES
57	CN=S(C)(=O)c1ccc(-n2ccn(-c3c4c(nn3-c3cc(C)c(F)c(C)c3)CCN(C(=O)c3cc5cc(C6CCOCC6)ccc5n3[C@@]3(c5noc(=O)[nH]5)C[C@@H]3C)[C@H]4C)c2=O)cc1 (single isomer, unassigned) [Compound 112]
35	Cc1cc(-n2nc3c(c2-n2ccn(-c4ccc(S(C)(=O)=NC#N)cc4)c2=O)[C@H](C)N(C(=O)c2cc4cc(C5CCOCC5)ccc4n2[C@@]2(c4noc(=O)[nH]4)C[C@@H]2C)CC3)cc(C)c1F (single isomer, unassigned) [Compound 113]
17	Cc1cc(-n2nc3c(c2-n2ccn(-c4ccc(S(C)(=N)=O)cc4)c2=O)[C@H](C)N(C(=O)c2cc4cc(C5CCOCC5)ccc4n2[C@@]2(c4noc(=O)[nH]4)C[C@@H]2C)CC3)cc(C)c1F (single isomer, unassigned) [Compound 114]
49	Cc1cc(-n2nc3c(c2-n2ccn(-c4ccc(S(C)(=N)=O)cc4)c2=O)[C@H](C)N(C(=O)c2cc4cc(C5CCOCC5)ccc4n2[C@@]2(c4noc(=O)[nH]4)C[C@@H]2C)CC3)cc(C)c1F (single isomer, unassigned) [Compound 115]
49	CCS(=N)(=O)c1ccc(-n2ccn(-c3c4c(nn3-c3cc(C)c(F)c(C)c3)CCN(C(=O)c3cc5cc(C6CCOCC6)ccc5n3[C@@]3(c5noc(=O)[nH]5)C[C@@H]3C)[C@H]4C)c2=O)cc1 (single isomer, unassigned) [Compound 116]
11	CCS(=N)(=O)c1ccc(-n2ccn(-c3c4c(nn3-c3cc(C)c(F)c(C)c3)CCN(C(=O)c3cc5cc(C6CCOCC6)ccc5n3[C@@]3(c5noc(=O)[nH]5)C[C@@H]3C)[C@H]4C)c2=O)cc1 (single isomer, unassigned) [Compound 117]
46	Cc1cc(-n2nc3c(c2-n2ccn(-c4ccc(S(C)(=O)=NC#N)cc4)c2=O)[C@H](C)N(C(=O)c2cc4cc(C5CCOCC5)ccc4n2[C@@]2(c4noc(=O)[nH]4)C[C@@H]2C)CC3)cc(C)c1F (single isomer, unassigned) [Compound 122]
5.1	Cc1cc(-n2nc3c(c2-n2ccn(-c4ccc(S(=N)(=O)C5CC5)cc4)c2=O)[C@H](C)N(C(=O)c2cc4cc(C5CCOCC5)ccc4n2[C@@]2(c4noc(=O)[nH]4)C[C@@H]2C)CC3)cc(C)c1F (single isomer, unassigned) [Compound 134]
1	Cc1cc(-n2nc3c(c2-n2ccn(-c4ccc(S(=N)(=O)C5CC5)cc4)c2=O)[C@H](C)N(C(=O)c2cc4cc(C5CCOCC5)ccc4n2[C@@]2(c4noc(=O)[nH]4)C[C@@H]2C)CC3)cc(C)c1F (single isomer, unassigned) [Compound 135]
150	CCS(=N)(=O)c1ccc(-n2ccn(-c3c4c(nn3-c3cc(C)c(F)c(C)c3)CCN(C(=O)c3cc5cc(C6CCOCC6)ccc5n3[C@@]3(c5noc(=O)[nH]5)C[C@@H]3C)[C@H]4C)c2=O)c(Cl)c1 (single isomer, unassigned) [Compound 137]
1	CCS(=N)(=O)c1ccc(-n2ccn(-c3c4c(nn3-c3cc(C)c(F)c(C)c3)CCN(C(=O)c3cc5cc(C6CCOCC6)ccc5n3[C@@]3(c5noc(=O)[nH]5)C[C@@H]3C)[C@H]4C)c2=O)c(F)c1 (single isomer, unassigned) [Compound 138]
62	CCS(=N)(=O)c1ccc(-n2ccn(-c3c4c(nn3-c3cc(C)c(F)c(C)c3)CCN(C(=O)c3cc5cc(C6CCOCC6)ccc5n3[C@@]3(c5noc(=O)[nH]5)C[C@@H]3C)[C@H]4C)c2=O)c(F)c1 (single isomer, unassigned) [Compound 139]
99	CCS(=N)(=O)c1ccc(-n2ccn(-c3c4c(nn3-c3cc(C)c(F)c(C)c3)CCN(C(=O)c3cc5cc(C6CCOCC6)ccc5n3[C@@]3(c5noc(=O)[nH]5)C[C@@H]3C)[C@H]4C)c2=O)cn1 (single isomer, unassigned) [Compound 140]
22	CCS(=N)(=O)c1ccc(-n2ccn(-c3c4c(nn3-c3cc(C)c(F)c(C)c3)CCN(C(=O)c3cc5cc(C6CCOCC6)ccc5n3[C@@]3(c5noc(=O)[nH]5)C[C@@H]3C)[C@H]4C)c2=O)cn1 (single isomer, unassigned) [Compound 141]
70	Cc1cc(-n2nc3c(c2-n2ccn(-c4ccc(S(=N)(=O)C5CCC5)cc4F)c2=O)[C@H](C)N(C(=O)c2cc4cc(C5CCOCC5)ccc4n2[C@@]2(c4noc(=O)[nH]4)C[C@@H]2C)CC3)cc(C)c1F (single isomer, unassigned) [Compound 169]
